PubChem BioAssay (NCI)
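Dose response: 5 concentrations. Exposure: 48 h. Format: 96-well plates. Endpoint: linear interpolation; highest concentration if not reached. TGI: concentration producing complete growth inhibition.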

Experiments:
Test in all cases: inhibition of tumour cell growth, NCI panel, 48 h
786-0 renal = system: 786-0 renal
A498 renal = system: A498 renal
A549 NSCLC = system: A549 NSCLC
ACHN renal = system: ACHN renal
COLO 205 colon = system: COLO 205 colon
DLD-1 colon = system: DLD-1 colon
DMS 114 small cell lung = system: DMS 114 small cell lung
EKVX NSCLC = system: EKVX NSCLC
HCT-116 colon = system: HCT-116 colon
HCT-15 colon = system: HCT-15 colon
HL-60(TB) leukemia = system: HL-60(TB) leukemia
HOP-62 NSCLC = system: HOP-62 NSCLC
HOP-92 NSCLC = system: HOP-92 NSCLC
HT29 colon = system: HT29 colon
IGROV1 ovarian = system: IGROV1 ovarian
KM12 colon = system: KM12 colon
LOX IMVI melanoma = system: LOX IMVI melanoma
LXFL 529 NSCLC = system: LXFL 529 NSCLC
M14 melanoma = system: M14 melanoma
M19-MEL melanoma = system: M19-MEL melanoma
MALME-3M melanoma = system: MALME-3M melanoma
NCI-H226 lung = system: NCI-H226 lung
NCI-H23 lung = system: NCI-H23 lung
NCI-H460 lung = system: NCI-H460 lung
NCI-H522 lung = system: NCI-H522 lung
OVCAR-3 ovarian = system: OVCAR-3 ovarian
OVCAR-5 ovarian = system: OVCAR-5 ovarian
OVCAR-8 ovarian = system: OVCAR-8 ovarian
RPMI-8226 leukemia = system: RPMI-8226 leukemia
RXF 393 renal = system: RXF 393 renal
SF-295 CNS = system: SF-295 CNS
SF-539 CNS = system: SF-539 CNS
SK-MEL-2 melanoma = system: SK-MEL-2 melanoma
SK-MEL-28 melanoma = system: SK-MEL-28 melanoma
SK-MEL-5 melanoma = system: SK-MEL-5 melanoma
SK-OV-3 ovarian = system: SK-OV-3 ovarian
SN12C renal = system: SN12C renal
SNB-19 CNS = system: SNB-19 CNS
SNB-78 CNS = system: SNB-78 CNS
SR leukemia = system: SR leukemia
SW-620 colon = system: SW-620 colon
U251 CNS = system: U251 CNS
UACC-257 melanoma = system: UACC-257 melanoma
UACC-62 melanoma = system: UACC-62 melanoma
UO-31 renal = system: UO-31 renal
CCRF-CEM leukemia = system: CCRF-CEM leukemia
DMS 273 small cell lung = system: DMS 273 small cell lung
HCC-2998 colon = system: HCC-2998 colon
K-562 leukemia = system: K-562 leukemia
MOLT-4 leukemia = system: MOLT-4 leukemia
OVCAR-4 ovarian = system: OVCAR-4 ovarian
SF-268 CNS = system: SF-268 CNS
SNB-75 CNS = system: SNB-75 CNS
TK-10 renal = system: TK-10 renal
CAKI-1 renal = system: CAKI-1 renal
HOP-18 NSCLC = system: HOP-18 NSCLC
KM20L2 colon = system: KM20L2 colon

O=C(Nc1cc(Cl)c(Cl)cc1Cl)C(=O)C(C(=O)c1ccc2ccccc2c1)C1OC(=O)c2ccccc21 (stereo not drawn)
TGI (786-0 renal): 20.9 µM
TGI (A498 renal): 25.8 µM
TGI (A549 NSCLC): 81.5 µM
TGI (ACHN renal): 39.9 µM
TGI (COLO 205 colon): 69.2 µM
TGI (DLD-1 colon): 32.9 µM
TGI (DMS 114 small cell lung): 44.1 µM
TGI (EKVX NSCLC): 36.6 µM
TGI (HCT-116 colon): 34.6 µM
TGI (HCT-15 colon): 45.2 µM
TGI (HL-60(TB) leukemia): 88.1 µM
TGI (HOP-62 NSCLC): 43.5 µM
TGI (HOP-92 NSCLC): 7.96 µM
TGI (HT29 colon): 37.3 µM
TGI (IGROV1 ovarian): 44.7 µM
TGI (KM12 colon): 31.2 µM
TGI (LOX IMVI melanoma): 39.8 µM
TGI (LXFL 529 NSCLC): 22.6 µM
TGI (M14 melanoma): 50.7 µM
TGI (M19-MEL melanoma): 53.6 µM
TGI (MALME-3M melanoma): 30.9 µM
TGI (NCI-H226 lung): 7.13 µM
TGI (NCI-H23 lung): 15.2 µM
TGI (NCI-H460 lung): 25.9 µM
TGI (NCI-H522 lung): 26.9 µM
TGI (OVCAR-3 ovarian): 59.5 µM
TGI (OVCAR-5 ovarian): 31.9 µM
TGI (OVCAR-8 ovarian): 23.6 µM
TGI (RPMI-8226 leukemia): > 100 µM
TGI (RXF 393 renal): 15.1 µM
TGI (SF-295 CNS): 21 µM
TGI (SF-539 CNS): 13 µM
TGI (SK-MEL-2 melanoma): 33.8 µM
TGI (SK-MEL-28 melanoma): 22.1 µM
TGI (SK-MEL-5 melanoma): 24.4 µM
TGI (SK-OV-3 ovarian): > 100 µM
TGI (SN12C renal): 42.5 µM
TGI (SNB-19 CNS): 33.2 µM
TGI (SNB-78 CNS): 38.6 µM
TGI (SR leukemia): > 100 µM
TGI (SW-620 colon): 25.6 µM
TGI (U251 CNS): 17 µM
TGI (UACC-257 melanoma): 28.7 µM
TGI (UACC-62 melanoma): 26.9 µM
TGI (UO-31 renal): 33.5 µM

CCc1oc2ccc(OC)c3c2c1C=CC=C3
TGI (786-0 renal): > 100 µM
TGI (A498 renal): > 100 µM
TGI (A549 NSCLC): > 100 µM
TGI (ACHN renal): > 100 µM
TGI (CCRF-CEM leukemia): > 100 µM
TGI (COLO 205 colon): > 100 µM
TGI (DLD-1 colon): > 100 µM
TGI (DMS 273 small cell lung): > 100 µM
TGI (EKVX NSCLC): > 100 µM
TGI (HCC-2998 colon): > 100 µM
TGI (HCT-15 colon): > 100 µM
TGI (HL-60(TB) leukemia): > 100 µM
TGI (HOP-62 NSCLC): > 100 µM
TGI (HT29 colon): > 100 µM
TGI (IGROV1 ovarian): > 100 µM
TGI (K-562 leukemia): > 100 µM
TGI (KM12 colon): > 100 µM
TGI (LOX IMVI melanoma): > 100 µM
TGI (LXFL 529 NSCLC): > 100 µM
TGI (M14 melanoma): > 100 µM
TGI (M19-MEL melanoma): > 100 µM
TGI (MALME-3M melanoma): > 100 µM
TGI (MOLT-4 leukemia): > 100 µM
TGI (NCI-H226 lung): > 100 µM
TGI (NCI-H23 lung): > 100 µM
TGI (NCI-H460 lung): > 100 µM
TGI (NCI-H522 lung): > 100 µM
TGI (OVCAR-3 ovarian): > 100 µM
TGI (OVCAR-4 ovarian): > 100 µM
TGI (OVCAR-5 ovarian): > 100 µM
TGI (OVCAR-8 ovarian): > 100 µM
TGI (RPMI-8226 leukemia): > 100 µM
TGI (RXF 393 renal): > 100 µM
TGI (SF-268 CNS): > 100 µM
TGI (SF-295 CNS): > 100 µM
TGI (SF-539 CNS): > 100 µM
TGI (SK-MEL-2 melanoma): > 100 µM
TGI (SK-MEL-28 melanoma): > 100 µM
TGI (SK-MEL-5 melanoma): > 100 µM
TGI (SK-OV-3 ovarian): > 100 µM
TGI (SN12C renal): > 100 µM
TGI (SNB-19 CNS): > 100 µM
TGI (SNB-75 CNS): > 100 µM
TGI (SNB-78 CNS): > 100 µM
TGI (SR leukemia): > 100 µM
TGI (SW-620 colon): > 100 µM
TGI (TK-10 renal): > 100 µM
TGI (U251 CNS): > 100 µM
TGI (UACC-257 melanoma): > 100 µM
TGI (UACC-62 melanoma): > 100 µM
TGI (UO-31 renal): > 100 µM

NC1=NS(=O)(=O)Nc2nc(-c3cccs3)[nH]c21
TGI (786-0 renal): > 100 µM
TGI (A498 renal): > 100 µM
TGI (A549 NSCLC): > 100 µM
TGI (ACHN renal): > 100 µM
TGI (CAKI-1 renal): > 100 µM
TGI (CCRF-CEM leukemia): > 100 µM
TGI (COLO 205 colon): > 100 µM
TGI (DLD-1 colon): > 100 µM
TGI (DMS 273 small cell lung): > 100 µM
TGI (HCC-2998 colon): > 100 µM
TGI (HCT-116 colon): > 100 µM
TGI (HCT-15 colon): > 100 µM
TGI (HL-60(TB) leukemia): > 100 µM
TGI (HOP-18 NSCLC): > 100 µM
TGI (HOP-62 NSCLC): > 100 µM
TGI (HOP-92 NSCLC): > 100 µM
TGI (HT29 colon): > 100 µM
TGI (IGROV1 ovarian): > 100 µM
TGI (K-562 leukemia): > 100 µM
TGI (KM12 colon): > 100 µM
TGI (KM20L2 colon): > 100 µM
TGI (LOX IMVI melanoma): > 100 µM
TGI (LXFL 529 NSCLC): > 100 µM
TGI (M14 melanoma): > 100 µM
TGI (M19-MEL melanoma): > 100 µM
TGI (MALME-3M melanoma): > 100 µM
TGI (MOLT-4 leukemia): > 100 µM
TGI (NCI-H23 lung): > 100 µM
TGI (NCI-H460 lung): > 100 µM
TGI (NCI-H522 lung): > 100 µM
TGI (OVCAR-3 ovarian): > 100 µM
TGI (OVCAR-4 ovarian): > 100 µM
TGI (OVCAR-5 ovarian): > 100 µM
TGI (OVCAR-8 ovarian): > 100 µM
TGI (RPMI-8226 leukemia): > 100 µM
TGI (RXF 393 renal): > 100 µM
TGI (SF-268 CNS): > 100 µM
TGI (SF-295 CNS): > 100 µM
TGI (SF-539 CNS): > 100 µM
TGI (SK-MEL-2 melanoma): > 100 µM
TGI (SK-MEL-28 melanoma): > 100 µM
TGI (SK-MEL-5 melanoma): > 100 µM
TGI (SK-OV-3 ovarian): > 100 µM
TGI (SN12C renal): > 100 µM
TGI (SNB-19 CNS): > 100 µM
TGI (SNB-75 CNS): > 100 µM
TGI (SR leukemia): > 100 µM
TGI (SW-620 colon): > 100 µM
TGI (TK-10 renal): > 100 µM
TGI (U251 CNS): > 100 µM
TGI (UACC-62 melanoma): > 100 µM
TGI (UO-31 renal): > 100 µM
